One assay has as its system P. aeruginosa 6616. In words: Photodynamic inactivation of Pseudomonas aeruginosa, re-seeding on MHA to control inactivation. Type of assay: cell-based. Conditions: initial dose 10 lg CFU/ml, 5 min, 500 μV/ml.
Assay [1] deals with Newcastle disease virus (strain 2M). In kind it is cell-based.

As for `Cc1cc2nc3c(=O)[nH]c(=O)nc-3n(C[C@H](O)[C@H](O)[C@H](O)CO)c2cc1C` [Riboflavin], the “lg CFU/ml after treatment” value in the assay on P. aeruginosa 6616 (photosensitizer 1 nM/L, 320 nm for flavins, 560 nm for phenothiazines and porphyrins) was determined as 6 lg CFU/ml; with P. aeruginosa 6616 (photosensitizer 5 nM/L, 320 nm for flavins, 560 nm for phenothiazines and porphyrins), 2 lg CFU/ml; in the assay on P. aeruginosa 6616 (photosensitizer 10 nM/L, 320 nm for flavins, 560 nm for phenothiazines and porphyrins) it was 1 lg CFU/ml; in the assay with P. aeruginosa 6616 (photosensitizer 20 nM/L, 320 nm for flavins, 560 nm for phenothiazines and porphyrins), 0 lg CFU/ml; with P. aeruginosa 6616 (photosensitizer 40 nM/L, 320 nm for flavins, 560 nm for phenothiazines and porphyrins) it was 0 lg CFU/ml; in the assay on P. aeruginosa 6616 (photosensitizer 80 nM/L, 320 nm for flavins, 560 nm for phenothiazines and porphyrins) it was 0 lg CFU/ml. The “lg CFU/ml after treatment” value in the assay on P. aeruginosa 6616 (photosensitizer 160 nM/L, 320 nm for flavins, 560 nm for phenothiazines and porphyrins) is on record as 0 lg CFU/ml; in the assay on P. aeruginosa 6616 (photosensitizer 320 nM/L, 320 nm for flavins, 560 nm for phenothiazines and porphyrins) it was 0 lg CFU/ml; in the assay on P. aeruginosa 6616 (photosensitizer 640 nM/L, 320 nm for flavins, 560 nm for phenothiazines and porphyrins), 0 lg CFU/ml; in the assay on P. aeruginosa 6616 (wavelength 180 nm, photoinactivator 40 μM/L), 0 lg CFU/ml; with P. aeruginosa 6616 (wavelength 220 nm, photoinactivator 40 μM/L), 2 lg CFU/ml; with P. aeruginosa 6616 (wavelength 260 nm, photoinactivator 40 μM/L), 1 lg CFU/ml. Also, the “lg CFU/ml after treatment” value in the assay on P. aeruginosa 6616 (wavelength 320 nm, photoinactivator 40 μM/L) was 0 lg CFU/ml; with P. aeruginosa 6616 (wavelength 360 nm, photoinactivator 40 μM/L) it was 0 lg CFU/ml; with P. aeruginosa 6616 (wavelength 400 nm, photoinactivator 40 μM/L), 0 lg CFU/ml; in the assay on P. aeruginosa 6616 (wavelength 440 nm, photoinactivator 40 μM/L) it was 0 lg CFU/ml; in the assay with P. aeruginosa 6616 (wavelength 480 nm, photoinactivator 40 μM/L) it was 0 lg CFU/ml; in the assay on P. aeruginosa 6616 (wavelength 520 nm, photoinactivator 40 μM/L) it was 9 lg CFU/ml. Also, the “lg CFU/ml after treatment” value amounted to 8 lg CFU/ml in the assay on P. aeruginosa 6616 (wavelength 560 nm, photoinactivator 40 μM/L); 9 lg CFU/ml with P. aeruginosa 6616 (wavelength 600 nm, photoinactivator 40 μM/L); 9 lg CFU/ml with P. aeruginosa 6616 (wavelength 640 nm, photoinactivator 40 μM/L); 7 lg CFU/ml in the assay on P. aeruginosa 6616 (wavelength 680 nm, photoinactivator 40 μM/L); 6 lg CFU/ml in the assay on P. aeruginosa 6616 (wavelength 720 nm, photoinactivator 40 μM/L). In assay [1], the “spectral region of highest inactivation efficiency” value is 180-390 nm.

The values above are taken from patent US11213579B2, “Vaccines with enhanced immunogenicity, low allergenicity and reactogenicity” (priority 2018, dated 2022).
